In patent US20260335388A1, “COMBINATION THERAPIES WITH ONCOLYTIC ADENOVIRUS AND TOPOISOMERASE I INHIBITORS OR PRODRUGS THEREOF” (priority 2022, published 2026):
pIC50: −log10 of the molar value. Read-outs that look alike come from different tables or passages of the source.

Tests used:
retinoblastoma cells = assay type: cell-based
[1] = tested on: HSJD-RBT-5 retinoblastoma cells; test: cells; assay type: cell-based; settings: Homo sapiens
Y79 retinoblastoma cells = test: cells; assay type: cell-based
[2] = tested on: HSJD-RBT-7 retinoblastoma cells; test: cells; assay type: cell-based; settings: Homo sapiens
[3] = tested on: HSJD-RBVS-10 retinoblastoma cells; test: cells; assay type: cell-based; settings: Homo sapiens
E1a = test: Immunoblot of E1a / E2F-1 in VCN-01-infected Y79 cells with further chemotherapeutics; assay type: cell-based; settings: for expression of VCN-01 proteins (E1a): VCN-01 50 MOI, drug added at 24 h, lysis at 48 h (FIG. 7); for expression of E2F-1 and E1A: Y79 cells pre-exposed to VCN-01 (FIG. 13H)
Experimental: 2 million Y79 retinoblastoma cells were infected with 50 MOIs of VCN-01. […] Etoposide is topoisomerase 2 inhibitor.
In all experiments, 6-well culture plates containing 2×10^6 cells were used. […] The experiments were controlled by adding culture medium instead of the second treatment. […] The analyses were expanded to other chemotherapeutic agents including hydroxyurea ([…]), etoposide (2 μM), irinotecan (10 μM) or SN-38 (1 μM).
Near-infrared labeled secondary antibodies (Odyssey CLx, LI-COR Inc. Bad Homburg, Germany) were used for detection.

[4] = tested on: Y79 cells and primary retinoblastoma cultures; assay type: cell-based
Y79 tumors = assay type: in vivo, mouse; settings: systemic drug after intratumoral VCN-01 3×10E^9 vp/tumor; 5 or 15 days (FIGS. 2A-B)
[5] = tested on: HSJD-NB-005 neuroblastoma; test: Antitumor activity in neuroblastoma PDX HSJD-NB-005; assay type: in vivo, mouse; settings: single treatment (FIG. 24D,F)
Experimental: PDX of neuroblastoma (pediatric solid tumor) were implanted subcutaneously into athymic nude mice. Tumor model was HSJD-NB-005. Upon engraftment (tumor volumes ranging 100-500 mm^3), treatments were started. The activity of topotecan vs. irinotecan in combination with VCN-01 was evaluated. The following groups of mice were included in the study, with an n of 6 tumors per group: • Group 1: no treatment • Group 2: topotecan i.p. at 0.6 mg/kg, Day 1-5 • Group 3: irinotecan i.p. at 10 mg/kg, Day 1-5 • Group 4: VCN-01 i.t at 3E9 vp/tumor, Day 1 • Group 5: VCN-01 i.t at 3E9 vp/tumor, Day 1 (morning)+topotecan i.p. at 0.6 mg/kg, Day 1-5 • Group 6: VCN-01 i.t at 3E9 vp/tumor, Day 1 (morning)+irinotecan i.p. at 10 mg/kg, Day 1-5
Antitumor activity in extracranial pediatric solid tumors. 5-10 mm^3 fresh fragments of Ewing sarcoma or neuroblastoma PDX were implanted in both flanks of mice. Upon s.c. engraftment (tumor volume 150-200 mm^3), mice received topotecan (0.6 mg/kg, i.p., days 1-5), VCN-01 (3×10^9 vp in 20 µL vehicle, intratumoral, day 1), or the combination. In two additional groups, an alternative topoisomerase 1 inhibitor, irinotecan (10 mg/kg, i.p., on days 1-5) we used in place of topotecan. Upon completion of treatments, tumor volumes were followed until endpoint (1500 mm^3), or until day 80.

[6] = read-out: IC50, Melphalan single agent
[7] = read-out: IC50, Melphalan with VCN-01 (10 MOI)

N[C@@H](Cc1ccc(N(CCCl)CCCl)cc1)C(=O)O [Melphalan, melphalan]
cell sensitivity to drug after VCN-01 infection (retinoblastoma cells): decreased cell sensitivity | pIC50 [1, 6]: 6.32 | pIC50 [1, 7]: 6.20 | pIC50 (Y79 retinoblastoma cells; [6]): 5.49 | pIC50 (Y79 retinoblastoma cells; [7]): 5.23 | pIC50 [2, 6]: 5.85 | pIC50 [2, 7]: 5.07 | pIC50 [3, 6]: 6.62 | pIC50 [3, 7]: 5.69

COc1cc([C@@H]2c3cc4c(cc3[C@@H](O[C@@H]3O[C@@H]5CO[C@@H](C)O[C@H]5[C@H](O)[C@H]3O)[C@H]3COC(=O)[C@H]23)OCO4)cc(OC)c1O [etoposide]
expression of VCN-01 proteins (E1a) (E1a): does not induce the same effect | expression of E2F-1 and E1A (E1a): did not modify the levels of these proteins

NC(=O)NO [hydroxyurea]
transgene expression, virus first ([4]; cells pre-infected with AdTLRGDK (FIG. 18E, FIG. 19A)): increased transgene expression | viral transduction, drug first ([4]; drug exposure before viral infection (FIG. 18E)): did not enhance viral transduction | expression of E2F-1 and E1A (E1a): did not modify the levels of these proteins | VCN-01 genome content in tumors (Y79 tumors): the enhancement of VCN-01 replication in vivo appears to be specific to topotecan

CCc1c2c(nc3ccc(OC(=O)N4CCC(N5CCCCC5)CC4)cc13)-c1cc3c(c(=O)n1C2)COC(=O)[C@]3(O)CC [irinotecan]
response of xenograft to single treatment [5]: highly resistant | expression of VCN-01 proteins (E1a) (E1a): does not work in vitro

SN-38
expression of VCN-01 proteins (E1a) (E1a): increases expression of VCN-01 proteins | expression of E2F-1 and E1A (E1a): increased the expression of E2F-1 and E1A similarly to topotecan
